Source: patent publication US9663516B2, “Bicyclic-pyrimidinedione compounds” (MyoKardia, Inc., priority 2014, dated 2017)

molecular target: bovine cardiac myosin (Bos taurus, UniProt Q9BE39); experiment: Myosin inhibition assay (PK/LDH-coupled ATPase, bovine cardiac myofibrils); assay type: biochemical; conditions: calcium concentration giving 50% activation, pH 6.8, read-out: bcMF pCa_6 IC50
Method: Small molecule agents were assessed for their ability to inhibit the enzymatic activity of bovine cardiac myosin using a biochemical assay that couples the release of ADP (adenosine diphosphate) from cardiac myosin to an enzymatic coupling system consisting of pyruvate kinase and lactate dehydrogenase (PK/LDH) and monitoring the absorbance decrease of NADH (at 340 nm) as a function of time. PK converts ADP to ATP (adenosine triphosphate) by converting PEP (phosphoenolpyruvate) to pyruvate. Pyruvate is then converted to lactate by LDH by converting NADH (nicotinamide adenine dinucleotide) to NAD (oxidized nicotinamide adenine dinucleotide). […] Prior to testing small molecule agents, the bovine myofibrils were assessed for their calcium responsiveness and the calcium concentration that achieves a 50% activation of the myofibril system was chosen as the final condition for assessing the inhibitory activity of the small molecule agents. All enzymatic activity was measured in a buffered solution containing 12 mM PIPES (piperazine-N,N′-bis(2-ethanesulfonic acid), 2 mM magnesium chloride at pH 6.8 (PM12 buffer). Final assay conditions were 1 mg/mL of bovine cardiac myofibrils, 0.4 mM PK/LDH, 50 uM ATP, 0.1 mg/mL BSA (bovine serum albumin), 10 ppm antifoam, 2 mM BME, 0.5 mM NADH, 1.5 mM PEP at the desired free calcium concentration required to achieve 50% activation of the myofibrils.
A dilution series of compound was created in DMSO such that the final desired concentration of compound would be achieved in a volume of 30 μL with a fixed DMSO concentration of 3.3% (v/v). Typically 1 μL of the dilution series were added to 384 well plate to achieve an 10 point dose response. Following the addition of 14 μL of a solution containing bovine cardiac myofibrils, PK/LDH and a solution of calcium (that achieved 50% activation), the enzymatic reaction was started with the addition of 15 μL of a solution containing ATP, PEP and NADH. The reaction progress was followed in a PerkinElmer Envision plate reader at ambient temperature using clear bottom plates. The plate reader was configured to read absorbance at 340 nm in kinetics mode for 15 minutes. Data were recorded as the slope of the absorbance response to time. The slopes of the absorbance response as a function of time were normalized to slopes on the plate containing DMSO. This normalized rate was then plotted as a function of small molecule concentration and the data was fitted to a four-parameter fit using EXCEL XLfit. The IC50 is the concentration at which fifty percent of the total response is inhibited.

bovine cardiac myosin, sequence (Q9BE39 whole entry): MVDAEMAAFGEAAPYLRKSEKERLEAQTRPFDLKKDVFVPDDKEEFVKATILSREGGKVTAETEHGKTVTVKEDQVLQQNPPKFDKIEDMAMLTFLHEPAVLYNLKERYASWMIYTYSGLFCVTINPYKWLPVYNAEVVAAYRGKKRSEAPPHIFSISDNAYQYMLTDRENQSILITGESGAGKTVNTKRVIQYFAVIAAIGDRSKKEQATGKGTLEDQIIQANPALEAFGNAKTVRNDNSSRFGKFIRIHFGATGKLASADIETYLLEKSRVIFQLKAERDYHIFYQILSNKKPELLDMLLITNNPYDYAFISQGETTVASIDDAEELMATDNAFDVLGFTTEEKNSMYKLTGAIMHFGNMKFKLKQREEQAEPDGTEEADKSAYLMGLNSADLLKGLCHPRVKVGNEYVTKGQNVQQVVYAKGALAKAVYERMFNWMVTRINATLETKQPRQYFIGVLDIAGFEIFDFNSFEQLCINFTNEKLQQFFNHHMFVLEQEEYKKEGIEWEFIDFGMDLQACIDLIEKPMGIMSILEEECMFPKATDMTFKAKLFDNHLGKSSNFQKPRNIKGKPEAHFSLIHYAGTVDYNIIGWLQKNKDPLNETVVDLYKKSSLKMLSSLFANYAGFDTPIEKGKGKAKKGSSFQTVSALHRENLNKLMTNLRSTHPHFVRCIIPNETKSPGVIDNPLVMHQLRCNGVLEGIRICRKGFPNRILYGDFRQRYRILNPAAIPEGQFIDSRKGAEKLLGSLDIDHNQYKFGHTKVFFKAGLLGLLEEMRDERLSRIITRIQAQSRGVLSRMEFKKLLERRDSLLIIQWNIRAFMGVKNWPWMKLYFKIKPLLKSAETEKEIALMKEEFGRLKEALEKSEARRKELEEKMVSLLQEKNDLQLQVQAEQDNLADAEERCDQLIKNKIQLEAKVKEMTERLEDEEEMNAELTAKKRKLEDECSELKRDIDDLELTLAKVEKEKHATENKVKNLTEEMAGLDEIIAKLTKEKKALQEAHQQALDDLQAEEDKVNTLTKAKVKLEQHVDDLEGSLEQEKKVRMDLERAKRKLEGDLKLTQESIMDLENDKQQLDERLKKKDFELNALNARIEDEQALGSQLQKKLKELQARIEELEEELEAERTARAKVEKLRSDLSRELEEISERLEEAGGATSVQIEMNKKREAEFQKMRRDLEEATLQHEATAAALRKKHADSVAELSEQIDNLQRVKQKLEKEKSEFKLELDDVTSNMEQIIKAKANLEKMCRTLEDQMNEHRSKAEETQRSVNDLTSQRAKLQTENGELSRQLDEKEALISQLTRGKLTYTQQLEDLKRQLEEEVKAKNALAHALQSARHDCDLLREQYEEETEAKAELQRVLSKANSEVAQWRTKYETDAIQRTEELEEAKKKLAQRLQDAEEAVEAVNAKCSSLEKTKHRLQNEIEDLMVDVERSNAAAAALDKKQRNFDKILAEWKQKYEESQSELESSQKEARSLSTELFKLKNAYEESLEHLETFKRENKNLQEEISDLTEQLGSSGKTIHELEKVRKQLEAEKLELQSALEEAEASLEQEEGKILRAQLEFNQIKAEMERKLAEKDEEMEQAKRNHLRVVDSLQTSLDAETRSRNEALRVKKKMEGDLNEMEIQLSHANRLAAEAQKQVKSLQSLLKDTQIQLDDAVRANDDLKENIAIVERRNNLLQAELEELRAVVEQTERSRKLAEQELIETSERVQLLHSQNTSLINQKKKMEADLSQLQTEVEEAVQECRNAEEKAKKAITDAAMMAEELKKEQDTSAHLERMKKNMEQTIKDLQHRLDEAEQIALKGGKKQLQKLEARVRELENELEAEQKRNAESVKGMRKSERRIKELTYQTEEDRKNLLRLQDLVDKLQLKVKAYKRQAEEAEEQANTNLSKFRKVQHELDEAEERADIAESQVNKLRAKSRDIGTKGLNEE
bovine cardiac myosin, sequence (P85100 whole entry partner): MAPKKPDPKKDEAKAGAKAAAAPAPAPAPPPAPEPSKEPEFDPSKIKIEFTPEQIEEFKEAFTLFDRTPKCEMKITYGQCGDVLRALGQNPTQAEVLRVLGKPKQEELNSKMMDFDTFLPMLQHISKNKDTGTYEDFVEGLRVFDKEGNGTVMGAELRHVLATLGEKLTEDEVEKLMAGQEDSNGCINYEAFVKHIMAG
bovine cardiac myosin, sequence (Q3SZE5 whole entry partner): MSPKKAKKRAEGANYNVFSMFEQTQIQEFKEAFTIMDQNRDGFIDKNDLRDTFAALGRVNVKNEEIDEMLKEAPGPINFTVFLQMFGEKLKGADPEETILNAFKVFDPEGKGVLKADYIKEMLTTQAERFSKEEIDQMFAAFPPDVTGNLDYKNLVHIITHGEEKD

Compound | IC50 [nM]
CC(C)n1c(=O)[nH]c2c(c1=O)C[C@H](c1ccccc1)N2 (single isomer, unassigned) [Compound 7] | 1000 to 15000
CC(C)n1c(=O)[nH]c2c(c1=O)C[C@@H](c1ccccc1)N2 (single isomer, unassigned) [Compound 8] | > 15000
O=c1[nH]c2c(c(=O)n1-c1ccccc1)CC[C@H](c1ccc(F)cc1)N2 [Compound 3, (R)-7-(4-Fluorophenyl)-3-phenyl-5,6,7,8-tetrahydropyrido[2,3-d]pyrimidine-2,4(1H,3H)-dione] | 1000 to 15000
COc1cccc([C@H]2CCc3c([nH]c(=O)n(C(C)C)c3=O)N2)c1 [Compound 5, (R)-3-Isopropyl-7-(3-methoxyphenyl)-5,6,7,8-tetrahydropyrido[2,3-d]pyrimidine-2,4(1H,3H)-dione] | 1000 to 15000
CC(C)n1c(=O)[nH]c2c(c1=O)CCCN2 [Compound 10, 3-Isopropyl-5,6,7,8-tetrahydropyrido[2,3-d]pyrimidine-2,4(1H,3H)-dione] | > 15000
CCn1c(=O)[nH]c2c(c1=O)CC[C@H](c1cccc(Cl)c1)N2 [Compound 11, (R)-7-(3-Chlorophenyl)-3-ethyl-5,6,7,8-tetrahydropyrido[2,3-d]pyrimidine-2,4(1H,3H)-dione] | 1000 to 15000
CC(C)n1c(=O)[nH]c2c(c1=O)CC[C@H](c1cccc(Cl)c1)N2 [Compound 12] | < 1000
CCn1c(=O)[nH]c2c(c1=O)CC[C@H](c1ccc(F)c(Cl)c1)N2 [Compound 13] | 1000 to 15000
CCn1c(=O)[nH]c2c(c1=O)CC[C@H](c1ccc(Cl)cc1)N2 [Compound 15] | 1000 to 15000
CCn1c(=O)[nH]c2c(c1=O)CC[C@H](c1ccc(F)cc1F)N2 [Compound 16] | 1000 to 15000
CC(C)n1c(=O)[nH]c2c(c1=O)CC[C@H](c1cc(F)ccc1F)N2 [Compound 17] | 1000 to 15000
O=c1[nH]c2c(c(=O)n1CC(F)F)CC[C@H](c1cccc(F)c1)N2 [Compound 24] | 1000 to 15000
CCn1c(=O)[nH]c2c(c1=O)CC[C@H](c1cc(F)cc(F)c1)N2 [Compound 25] | > 15000
O=c1[nH]c2c(c(=O)n1-c1ccccc1)CC[C@H](c1ccccc1)N2 [Compound 26] | 1000 to 15000
O=c1[nH]c2c(c(=O)n1C1CCC1)CC[C@H](c1ccccc1)N2 [Compound 28] | 1000 to 15000
O=c1[nH]c2c(c(=O)n1C1CCOCC1)CC[C@H](c1ccccc1)N2 [Compound 32] | 1000 to 15000
O=c1[nH]c2c(c(=O)n1-c1ccccn1)CC[C@H](c1ccccc1)N2 [Compound 35] | 1000 to 15000

Now from value to compound:

IC50 [nM] | Compound
1000 to 15000 | O=c1[nH]c2c(c(=O)n1CC1CC1)CC[C@H](C1CCC(F)(F)CC1)N2 [Compound 19]
1000 to 15000 | O=c1[nH]c2c(c(=O)n1C1CC1)CC[C@H](C1CCC(F)(F)CC1)N2 [Compound 21]
< 1000 | CC(C)Cn1c(=O)[nH]c2c(c1=O)CC[C@H](C1CCC(F)(F)CC1)N2 [Compound 23]
1000 to 15000 | CC(C)n1c(=O)[nH]c2c(c1=O)CC[C@H](C1CCOCC1)N2 [Compound 27]
1000 to 15000 | CC[C@H](C)n1c(=O)[nH]c2c(c1=O)CC[C@H](C1CCC(F)(F)CC1)N2 [Compound 29]
< 1000 | CCCn1c(=O)[nH]c2c(c1=O)CC[C@H](C1CCC(F)(F)CC1)N2 [Compound 30]
< 1000 | O=c1[nH]c2c(c(=O)n1-c1ccc(F)cn1)CC[C@H](C1CCC(F)(F)CC1)N2 [Compound 33]
1000 to 15000 | O=c1[nH]c2c(c(=O)n1-c1cccc(F)n1)CC[C@H](c1ccccc1)N2 [Compound 34]
< 1000 | Cn1ccc(-n2c(=O)[nH]c3c(c2=O)CC[C@H](C2CCC(F)(F)CC2)N3)n1 [Compound 36]
< 1000 | CC1(n2c(=O)[nH]c3c(c2=O)CC[C@H](C2CCC(F)(F)CC2)N3)CC1 [Compound 37]
1000 to 15000 | Cc1cccc(-n2c(=O)[nH]c3c(c2=O)CC[C@H](C2CCC(F)(F)CC2)N3)n1 [Compound 38]
1000 to 15000 | COc1cccc(-n2c(=O)[nH]c3c(c2=O)CC[C@H](C2CCC(F)(F)CC2)N3)n1 [Compound 39]
